This note sets out measurements from US20100119599A1 (ARCHER PHARMACEUTICALS, INC., priority 2006, published 2010).

Read-outs that look alike come from different tables or passages of the source.

The test system of assay [1] is Aβ1-40. In words: Measurement of Aβ1-40 in culture medium of 7W WT APP751 CHO cells by ELISA.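 As to all read-outs here: 5 µM test compound but RI-coded compounds at 10 µM for 24 hours.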 It is filed as cell-based, Chinese hamster. Particulars: for Aβ1-40 (% of control): CHO cells that overexpress APP751, zero = below the detection limit of the assay; for activity at 5 µM: Cricetulus griseus, 5 μM test compound, CHO cells stably transfected with human APP751, culture medium, ELISA, control DMSO. Background: In an ELISA, binding on a coated surface is turned into a signal by an enzyme label.

Assay [2] relates to Aβ1-42. In words: Measurement of Aβ1-42 in culture medium of 7W WT APP751 CHO cells by ELISA.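 As to Aβ1-42 (% of control): 5 µM test compound but RI-coded compounds at 10 µM for 24 hours.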 It is filed as cell-based, Chinese hamster. Particulars: for Aβ1-42 (% of control): CHO cells that overexpress APP751, zero = below the detection limit of the assay; for activity at 5 µM: Cricetulus griseus, 5 μM test compound, CHO cells stably transfected with human APP751, culture medium, ELISA, control DMSO.

Where [3] appears, read: Table 1, 0 = no detectable amount.
[4] abbreviates: Table 1, 0 = no detectable amount, read-out: Aβ1-42 (% of control).

On to `CC1=C(C(=O)Nc2ccccc2)C(c2ccsc2)C(C#N)=C(SCC(=O)Nc2ccc(Cl)cc2)N1` (stereo not drawn) [RI_75], for which, in assay [1], the “Aβ1-40 (% of control)” value is 27.3 % of control. The “Aβ1-42 (% of control)” value in assay [2] is given as 38.6 % of control.
In the case of `CC1=C(C(=O)Nc2ccccc2)C(c2cccs2)C(C#N)=C(SCC(=O)Nc2ccc(C(C)C)cc2)N1` (stereo not drawn) [RI_47], the “Aβ1-40 (% of control)” value in assay [1] was 30.5 % of control. In assay [2], the “Aβ1-42 (% of control)” value is 28.1 % of control.
Turning to `COc1ccc(C2CC(=O)C3=C(C2)NC(C)=C(C(=O)OCc2ccccc2)C3c2ccc3c(c2)OCO3)cc1` (stereo not drawn) [ST017133, phenylmethyl 4-(2H-benzo[3,4-d]1,3-dioxolen-5-yl)-7-(4-methoxyphenyl)-2-methyl-5-oxo-1,4,6,7,8-pentahydroquinoline-3-carboxylate], the activity at 5 µM in assay [1] (setting [3]) was 39.2%; in assay [2] (setting [4]), 79.2%.
With `COC(=O)C1=CN(C2CC2)C=C(C(=O)OC)C1c1cc2c(cc1Cl)OCO2` [ST051458, methyl 4-(6-chloro(2H-benzo[d]1,3-dioxolan-5-yl))-1-cyclopropyl-5-(methoxycarbonyl)-1,4-dihydropyridine-3-carboxylate], the “Aβ1-40 (% of control)” value in assay [1] is given as 77.81 % of control. For the same compound, the “Aβ1-42 (% of control)” value in assay [2] is given as 59.9 % of control.
On to `CCOc1cc(C2C(C(=O)OCc3ccc(OC)cc3)=C(C)NC3=C2C(=O)CC(C)(C)C3)ccc1O` (stereo not drawn) [ST016964, (4-methoxyphenyl)methyl 4-(3-ethoxy-4-hydroxyphenyl)-2,7,7-trimethyl-5-oxo-1,4,6,7,8-pentahydroquinoline-3-carboxylate], for which the values for the activity at 5 µM in assay [1] (setting [3]) and in assay [2] (setting [4]) were 36.4% and 40%, respectively.
The like results for `COCCOC(=O)C1=C(C)NC2=C(C(=O)CCC2)C1c1ccccc1` (stereo not drawn) [ST013253, 2-methoxyethyl 2-methyl-5-oxo-4-phenyl-1,4,6,7,8-pentahydroquinoline-3-carboxylate] were, in that order, 50.2% and 85.8%.
For `COc1cccc(C2C(C(=O)OC(C)C)=C(C)NC3=C2C(=O)CC(c2ccc(Cl)cc2)C3)c1OC` (stereo not drawn) [ST017324, methylethyl 4-(2,3-dimethoxyphenyl)-7-(4-chlorophenyl)-2-methyl-5-oxo-1,4,6,7,8-pentahydroquinoline-3-carboxylate], the results for the activity at 5 µM in assay [1] (setting [3]) and in assay [2] (setting [4]) were 30.2% and 99.2%, respectively.
Consider `N#CC1=C(N)N(Cc2ccccc2)C2=C(COC/C2=C/c2cccnc2)C1c1cccnc1` (stereo not drawn) [ST014245, 2-amino-1-benzyl-4-(3-pyridyl)-8-(3-pyridylmethylene)-1,4,7-trihydro-5H-pyrano[4,3-b]pyridine-3-carbonitrile], for which the “Aβ1-40 (% of control)” value in assay [1] is given as 75.44 % of control. For the same compound, in assay [2], the “Aβ1-42 (% of control)” value is given as 53.59 % of control.
Taken in the same sequence, the figures for `N#CC1=C(N)NC(SCC(N)=O)=C(C#N)C1c1ccccc1F` (stereo not drawn) [RI_2] were 100.9 % of control and 44.4 % of control.
On to `COc1cc(OC)c(C2C(C(=O)OC3CCCC3)=C(C)NC3=C2C(=O)CC(c2cccs2)C3)cc1OC` (stereo not drawn) [ST051557, cyclopentyl 2-methyl-5-oxo-7-(2-thienyl)-4-(2,4,5-trimethoxyphenyl)-1,4,6,7,8-pentahydroquinoline-3-carboxylate], for which the values for the activity at 5 µM in assay [1] (setting [3]) and in assay [2] (setting [4]) were 57.3% and 93.1%, respectively.
Turning to `C=CCOC(=O)C1=C(C)NC2=C(C(=O)CCC2)C1c1ccc(OC)c(OC)c1OC` (stereo not drawn) [ST014969, prop-2-enyl 2-methyl-5-oxo-4-(2,3,4-trimethoxyphenyl)-1,4,6,7,8-pentahydroquinoline-3-carboxylate], the results for the activity at 5 µM in assay [1] (setting [3]) and in assay [2] (setting [4]) were 39.7% and 83.3%, respectively.
On to `CCCOC(=O)C1=C(C)NC2=C(C(=O)CC(c3ccccc3)C2)C1c1ccc(Cl)cc1Cl` (stereo not drawn) [ST017293, propyl 4-(2,4-dichlorophenyl)-2-methyl-5-oxo-7-phenyl-1,4,6,7,8-pentahydroquinoline-3-carboxylate], for which the activity at 5 µM amounted to 57.7% in assay [1] (setting [3]) and 95.2% in assay [2] (setting [4]).
For the compound `CCOCCOC(=O)C1=C(C)NC2=C(C(=O)CCC2)C1c1ccc(OC(C)=O)cc1` (stereo not drawn) [ST013435, 4-{3-[(2-ethoxyethyl)oxycarbonyl]-2-methyl-5-oxo-4-1,4,6,7,8-pentahydroquinolyl}phenyl acetate], the activity at 5 µM in assay [1] (setting [3]) turned out to be 64.7%; in assay [2] (setting [4]), 70.1%.
In the case of `COC(=O)C1=CN(CC2CCCO2)C=C(C(=O)OC)C1c1ccc(Cl)c(Cl)c1` (stereo not drawn) [ST045237, methyl 4-(3,4-dichlorophenyl)-5-(methoxycarbonyl)-1-(oxolan-2-ylmethyl)-1,4-dihydropyridine-3-carboxylate], the “Aβ1-40 (% of control)” value in assay [1] is recorded as 60.46 % of control. In addition, in assay [2], the “Aβ1-42 (% of control)” value was 50.77 % of control.
For `CC1=C(C(=O)OC2CCCC2)C(c2ccc(Cl)cc2)C2=C(CC(C)(C)CC2=O)N1` (stereo not drawn) [ST013081, cyclopentyl 4-(4-chlorophenyl)-2,7,7-trimethyl-5-oxo-1,4,6,7,8-pentahydroquinoline-3-carboxylate], the results for the activity at 5 µM in assay [1] (setting [3]) and in assay [2] (setting [4]) were 0% and 0.188%, respectively.
In the case of `Cc1ccsc1/C=c1\sc2n(c1=O)C(N)=C(C#N)C(c1sccc1C)C=2C#N` (stereo not drawn) [ST006952, 5-amino-7-(3-methyl(2-thienyl))-2-[(3-methyl(2-thienyl))methylene]-3-oxo-4,7-dihydro-1,3-thiazolidino[3,2-a]pyridine-6,8-dicarbonitrile], the “Aβ1-40 (% of control)” value in assay [1] is reported as 48.24 % of control. In addition, in assay [2], the “Aβ1-42 (% of control)” value is 77.1 % of control.
Regarding `CC1=C(C(=O)Nc2ccccc2)C(c2ccccc2)C(C#N)=C(SCC(=O)Nc2ccccc2C)N1` (stereo not drawn) [RI_16], in assay [1], the “Aβ1-40 (% of control)” value was 64.2 % of control. Also, in assay [2], the “Aβ1-42 (% of control)” value is given as 105 % of control.
Take `CC1=C(C(=O)Nc2ccccc2)C(c2cccs2)C(C#N)=C(SCC(=O)Nc2ccc(Cl)c(C)c2)N1` (stereo not drawn) [RI_72]: in assay [1], the “Aβ1-40 (% of control)” value was 40.2 % of control. For the same compound, the “Aβ1-42 (% of control)” value in assay [2] was 50.9 % of control.
Regarding `CCCCCCNC(=O)CSC1=C(C#N)C(c2cccs2)C(C(=O)Nc2ccccc2)=C(C)N1` (stereo not drawn) [RI_26], the “Aβ1-40 (% of control)” value in assay [1] is 37.6 % of control. In addition, the “Aβ1-42 (% of control)” value in assay [2] is on record as 26.7 % of control.
With `N#CC(C#N)=CC=C1C=CN(C2CCCCC2)C=C1` [ST019328], the activity at 5 µM worked out at 59% in assay [1] (Table 3) and 92.2% in assay [2] (Table 3, read-out: Aβ-42 (% of control)).
On to `CCCCOC(=O)C1=C(C)NC2=C(C(=O)CC(C)(C)C2)C1c1cccc2ccccc12` (stereo not drawn) [ST013208, butyl 2,7,7-tnmethyl-4-naphthyl-5-oxo-1,4,6,7,8-pentahydroquinoline-3-carboxylate], for which the activity at 5 µM is 0% in assay [1] (setting [3]) and 20.2% in assay [2] (setting [4]).
For `COC(=O)C1=C(C)NC2=C(C(=O)CC(c3ccc(Cl)cc3)C2)C1c1ccccc1` (stereo not drawn) [ST015218, methyl 7-(4-chlorophenyl)-2-methyl-5-oxo-4-phenyl-1,4,6,7,8-pentahydroquinoline-3-carboxylate], the activity at 5 µM in assay [1] (setting [3]) is 59.3%; in assay [2] (setting [4]), 0%.
Regarding `COCCOC(=O)C1=C(C)NC2=C(C(=O)CCC2)C1c1ccc(N(C)C)cc1` (stereo not drawn) [ST013251, 2-methoxyethyl 4-[4-(dimethylamino)phenyl]-2-methyl-5-oxo-1,4,6,7,8-pentahydroquinoline-3-carboxylate], the figures for the activity at 5 µM in assay [1] (setting [3]) and in assay [2] (setting [4]) were 89.4% and 58.6%, respectively.
In the case of `N#CC1=C(N)n2c(s/c(=C\c3ccccc3)c2=O)=C(C#N)C1c1ccccc1` (stereo not drawn) [RI_95], in assay [1], the “Aβ1-40 (% of control)” value is reported as 67.9 % of control. In assay [2], the “Aβ1-42 (% of control)” value was 69.9 % of control.
`CCOc1cccc(C2C(C(=O)OC)=CNC=C2C(=O)OC)c1` [ST052415, methyl 4-(3-ethoxyphenyl)-5-(methoxycarbonyl)-1,4-dihydropyridine-3-carboxylate]: the “Aβ1-40 (% of control)” value in assay [1] is 70.57 % of control. Further, the “Aβ1-42 (% of control)” value in assay [2] is given as 72.15 % of control.
Consider `CCOCCOC(=O)C1=C(C)NC2=C(C(=O)CCC2)C1c1ccc(OC)c(OC)c1` (stereo not drawn) [ST013341, 2-ethoxyethyl 4-(3,4-dimethoxyphenyl)-2-methyl-5-oxo-1,4,6,7,8-pentahydroquinoline-3-carboxylate], for which the activity at 5 µM in assay [1] (setting [3]) is 73%; in assay [2] (setting [4]), 73.9%.
Take `COc1ccccc1C1C(C(=O)OC2CCCC2)=C(C)NC2=C1C(=O)CC(c1ccccc1)C2` (stereo not drawn) [ST017176, cyclopentyl 4-(2-methoxyphenyl)-2-methyl-5-oxo-7-phenyl-1,4,6,7,8-pentahydroquinoline-3-carboxylate]: the activity at 5 µM in assay [1] (setting [3]) came out at 34.2%; in assay [2] (setting [4]), 49.8%.
On to `CC1=C(C(=O)OCCOc2ccccc2)C(c2coc3ccc(C)cc3c2=O)C2=C(CC(C)(C)CC2=O)N1` (stereo not drawn) [ST052392, 2-phenoxyethyl 2,7,7-trimethyl-4-(6-methyl-4-oxochromen-3-yl)-5-oxo-1,4,6,7,8-pentahydroquinoline-3-carboxylate], for which the results for the activity at 5 µM in assay [1] (setting [3]) and in assay [2] (setting [4]) were 28.1% and 11.9%, respectively.
In the case of `CCCCOC(=O)C1=C(C)NC2=C(C(=O)CCC2)C1c1ccccc1OCCC` (stereo not drawn) [ST013325, butyl 2-methyl-5-oxo-4-(2-propoxyphenyl)-1,4,6,7,8-pentahydroquinoline-3-carboxylate], the activity at 5 µM in assay [1] (setting [3]) is 28.5%; in assay [2] (setting [4]), 69.4%.
For `COC(=O)C1=C(N)n2c(s/c(=C/c3ccc(Cl)cc3Cl)c2=O)=C(C(=O)OC)C1c1ccc(Cl)cc1Cl` (stereo not drawn) [ST011769, methyl 5-amino-7-(2,4-dichlorophenyl)-2-[(2,4-dichlorophenyl)methylene]-6-(methoxycarbonyl)-3-oxo-4,7-dihydro-1,3-thiazolidino[3,2-a]pyridine-8-carboxylate], in assay [1], the “Aβ1-40 (% of control)” value is 42.3 % of control. Further, in assay [2], the “Aβ1-42 (% of control)” value was 71.56 % of control.
